Results taken from patent US7771753B2, “Topical formulations comprising ceramic hydroxyapatite particles” (Laboratory Skin Care, Inc., priority 1995, dated 2010).

System: microorganisms (bacteria, fungi, pseudomonas aeruginosa, pseudomonas capacia, staphylococcus aureus, escherichia coli, candida albicans, aspergillus niger …)
Experiment: Antimicrobial effectiveness of the agent used in the formulation
Conditions: salmonella typhimurium
Source text: A preferred chemical antimicrobial agent for use under the invention is Triclosan. This agent used in the formulation has been found effective against the whole genera of microorganisms, (for example: bacteria, fungi, pseudomonas aeruginosa, pseudomonas capacia, staphylococcus aureus, escherichia coli, candida albicans, aspergillus niger, salmonella typhimurium, etc . . . ). […] The antimicrobial chemical agent is normally present in an amount of from 0.001-5% by weight, preferably from 0.05-2% by weight, and more preferably from 0.1-1% by weight.

Oc1cc(Cl)ccc1Oc1ccc(Cl)cc1Cl [Triclosan]
effectiveness against microorganisms: effective
